Data set [1] concerns the target T1, serum albumin (Homo sapiens, UniProt P02768). Put plainly: Binding affinity to human serum albumin at 30 uM by HPLC analysis. Conditions: read-out: PB (converted). It counts as ADME.
Data set [2] concerns the target T2, serum albumin (Rattus norvegicus, UniProt P02770). Put plainly: Binding affinity to rat serum albumin at 30 uM by HPLC analysis. It counts as ADME. Conditions: read-out: PB (converted).
Data set [3] addresses T1, serum albumin. Kind of data set: Binding affinity to human serum albumin assessed as fraction unbound at 30 uM by HPLC analysis. The format is ADME.
The nature of data set [4]: Ratio of binding affinity to rat serum albumin assessed as fraction unbound to binding affinity to human serum albumin assessed as fraction unbound. It counts as ADME. The settings on record: isolated protein.
Data set [5] concerns the target T2, serum albumin. Kind of data set: Binding affinity to rat serum albumin assessed as fraction unbound at 30 uM by HPLC analysis. It counts as ADME.
Data set [6] has as its system Pelophylax lessonae. Kind of data set: Ratio of IC50 for tonic block of voltage-gated sodium channel in Rana esculenta ventral branch of semitendinosus muscle to IC50 for use-dependent block of voltage-gated sodium channel in Rana esculenta ventral branch of semitendinosus muscle at 10 Hz frequency. The format is tissue-based.
The test system of data set [7] is Pelophylax lessonae. Kind of data set: Ratio of IC50 for tonic block of voltage-gated sodium channel in Rana esculenta ventral branch of semitendinosus muscle to IC50 for use-dependent block of voltage-gated sodium channel in Rana esculenta ventral branch of semitendinosus muscle at 2 Hz frequency. It counts as tissue-based.
The nature of data set [8]: Inhibition of voltage-gated sodium channel in Rana esculenta ventral branch of semitendinosus muscle at -140 mV of holding potential by Hille-Campbell vaseline gap voltage-clamp recording. The format is tissue-based, Pelophylax lessonae.
A short description of data set [9]: Inhibition of voltage-gated sodium channel in Rana esculenta ventral branch of semitendinosus muscle at -70 mV of holding potential by Hille-Campbell vaseline gap voltage-clamp recording. It counts as tissue-based, Pelophylax lessonae.
Data set [10] is described as follows: Inhibition of voltage-gated sodium channel in Rana esculenta ventral branch of semitendinosus muscle assessed as use-dependent block at 2 Hz stimulation frequency by Hille-Campbell vaseline gap voltage-clamp recording. The format is tissue-based, Pelophylax lessonae.
A short description of data set [11]: Inhibition of voltage-gated sodium channel in Rana esculenta ventral branch of semitendinosus muscle assessed as tonic block by measuring reduction of maximal peak sodium transient at holding potential -100 mV by Hille-Campbell vaseline gap voltage-clamp recording. The format is tissue-based, Pelophylax lessonae.
A short description of data set [12]: Inhibition of voltage-gated sodium channel in Rana esculenta ventral branch of semitendinosus muscle assessed as use-dependent block at 10 Hz frequency by Hille-Campbell vaseline gap voltage-clamp recording. It counts as tissue-based, Pelophylax lessonae.
The test system of data set [13] is Pelophylax lessonae. Put plainly: Inhibition of voltage-gated sodium channel in Rana esculenta ventral branch of semitendinosus muscle assessed as tonic block by measuring reduction of maximal peak sodium transient at 500 uM at 10 Hz stimulation frequency by Hille-Campbell vaseline gap voltage-clamp recording. It counts as tissue-based.
For data set [14], the target named is T1, serum albumin. Put plainly: Binding affinity to human serum albumin. It counts as ADME. Conditions: read-out: PB (converted).
Data set [15] relates to Pelophylax lessonae. Kind of data set: Inhibition of voltage-gated sodium channel in Rana esculenta ventral branch of semitendinosus muscle assessed as tonic block by measuring reduction of maximal peak sodium transient at 300 uM at 10 Hz stimulation frequency by Hille-Campbell vaseline gap voltage-clamp recording. It counts as tissue-based.
The test system of data set [16] is Pelophylax lessonae. Kind of data set: Steady state inactivation of voltage-gated sodium channel in Rana esculenta ventral branch of semitendinosus muscle at 100 uM assessed as change in potential at which 50% of sodium channel were inactivated measured at 1000 ms prepulse by Hille-Campbell vaseline gap voltage-clamp recording. It counts as tissue-based.
Data set [17] can be described thus: Inhibition of voltage-gated sodium channel in Rana esculenta ventral branch of semitendinosus muscle assessed as tonic block at 10 Hz stimulation frequency by measuring reduction of maximal peak sodium transient by Hille-Campbell vaseline gap voltage-clamp recording. The format is tissue-based, Pelophylax lessonae.

Six compounds from ChEMBL document CHEMBL3232895, “N-aryl-2,6-dimethylbenzamides, a new generation of tocainide analogues as blockers of skeletal muscle voltage-gated sodium channels” (J Med Chem, 2014) can be followed below.

Each structure is given as a SMILES string.

T1 sequence (P02768 whole entry): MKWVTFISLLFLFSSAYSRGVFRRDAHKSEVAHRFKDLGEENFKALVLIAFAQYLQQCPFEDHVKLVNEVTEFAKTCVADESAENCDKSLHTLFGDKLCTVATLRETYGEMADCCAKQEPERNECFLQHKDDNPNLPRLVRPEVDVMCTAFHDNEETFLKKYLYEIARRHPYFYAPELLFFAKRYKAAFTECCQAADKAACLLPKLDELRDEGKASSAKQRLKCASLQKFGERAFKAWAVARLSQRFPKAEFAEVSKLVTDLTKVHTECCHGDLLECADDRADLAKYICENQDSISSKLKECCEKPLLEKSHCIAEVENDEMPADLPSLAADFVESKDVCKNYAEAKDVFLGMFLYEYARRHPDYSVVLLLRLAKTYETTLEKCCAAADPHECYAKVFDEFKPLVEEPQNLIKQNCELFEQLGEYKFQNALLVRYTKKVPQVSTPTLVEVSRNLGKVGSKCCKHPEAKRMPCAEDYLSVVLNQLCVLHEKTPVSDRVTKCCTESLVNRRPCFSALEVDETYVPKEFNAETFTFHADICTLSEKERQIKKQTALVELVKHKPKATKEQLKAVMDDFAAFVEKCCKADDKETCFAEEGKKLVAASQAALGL
T2 sequence (P02770 whole entry): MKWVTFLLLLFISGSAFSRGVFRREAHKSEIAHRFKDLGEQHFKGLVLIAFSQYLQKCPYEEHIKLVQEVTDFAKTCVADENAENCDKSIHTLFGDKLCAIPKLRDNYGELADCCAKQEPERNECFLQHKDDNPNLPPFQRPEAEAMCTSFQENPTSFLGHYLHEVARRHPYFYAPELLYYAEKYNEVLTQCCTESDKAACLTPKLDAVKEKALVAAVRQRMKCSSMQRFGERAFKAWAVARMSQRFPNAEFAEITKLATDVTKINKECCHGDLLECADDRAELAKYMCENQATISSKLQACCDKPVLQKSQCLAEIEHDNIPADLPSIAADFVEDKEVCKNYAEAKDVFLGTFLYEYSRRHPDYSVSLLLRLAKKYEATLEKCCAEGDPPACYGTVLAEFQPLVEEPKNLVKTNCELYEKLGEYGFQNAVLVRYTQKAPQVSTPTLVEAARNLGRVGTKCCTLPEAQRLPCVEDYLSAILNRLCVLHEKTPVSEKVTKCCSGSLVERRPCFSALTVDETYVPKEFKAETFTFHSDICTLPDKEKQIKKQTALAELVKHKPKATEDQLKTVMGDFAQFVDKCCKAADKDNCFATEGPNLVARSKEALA

Regarding `Cc1cccc(C)c1NC(=O)C1CCN(Cc2ccccc2)C1` (centres undefined), the fraction unbound at 30 µM at serum albumin [1] was 0.029; at serum albumin [2] it was 0.064; on serum albumin [3] it was 0.0284; on serum albumin [5] it was 0.0644. Also, the Ratio in data set [4] is 2.27.
A word on the IC50: it is the concentration that inhibits the measured activity by half. As a reminder, the inhibition is the percentage by which the read-out fell short of the control. As for `Cc1cccc(C)c1NC(=O)C(C)N` (racemic) [TOCAINIDE], the Ratio IC50 in the data set on Pelophylax lessonae [6] is 2.1; with Pelophylax lessonae [7], 1.5. Moreover, the IC50 in data set [8] was 985 µM; in [9], 254 µM; in data set [10], 350 µM; in data set [11] it was 523 µM; in [12], 248 µM. Besides, the fraction unbound at 30 µM at serum albumin [1] was 0.746; on serum albumin [2], 0.64; on serum albumin [3], 0.746; at serum albumin [5], 0.64. The Ratio in [4] worked out at 0.86. Further, the inhibition in the data set with Pelophylax lessonae [13] stood at 42.6%.
Regarding `O=C1CN=C(c2ccccc2Cl)c2cc([N+](=O)[O-])ccc2N1` [CLONAZEPAM], the figures for the fraction unbound at 30 µM at serum albumin [1] and at serum albumin [2] were 0.143 and 0.117, respectively. The fraction unbound on serum albumin [14] was 0.14.
For the compound `Cc1cccc(C)c1NC(=O)CC(C)NCc1cccc2ccccc12` (racemic), the fraction unbound at 30 µM on serum albumin [1] was 0.033; at serum albumin [2] it was 0.04; on serum albumin [3] it was 0.033; on serum albumin [5] it was 0.04.
The term pIC50 denotes the negative decadic logarithm of the IC50, by convention in mol/L. On to `Cc1cccc(C)c1NC(=O)CC(C)N` (racemic), for which the inhibition in the data set with Pelophylax lessonae [15] was found to be 35.6%. For the same compound, the Ratio IC50 with Pelophylax lessonae [6] is 8.6; in the data set with Pelophylax lessonae [7] it was 5.2. For the same compound, the Activity in the data set with Pelophylax lessonae [16] stood at 4.8 mV. Moreover, the IC50 in [8] turned out to be 603 µM; in data set [9] it was 54 µM; in data set [10], 81.2 µM; in data set [11] it was 420 µM; in data set [12], 48.8 µM. The pIC50 in data set [17] came out at 4.31.
For the compound `Cc1cccc(C)c1NC(=O)CC(C)NCc1ccccc1` (racemic), the fraction unbound at 30 µM at serum albumin [1] was 0.047; at serum albumin [2], 0.121; on serum albumin [3], 0.0474; on serum albumin [5], 0.122.
